Results from patent US20150246056A1, “METHODS FOR TREATING OR PREVENTING SYMPTOMS OF HORMONAL VARIATIONS” (priority 2006, published 2015).
Like-named read-outs stand apart in the source and are kept apart here.

Columns and labels:
hot flashes = conditions: cited from earlier work; for minimizing the occurrence and severity of hot flashes compared with placebo: randomized clinical trials (Loprinzi 2000; Stearns 2003)
[1] = system: hot flashes or other symptoms of hormonal variations
D2 dopamine receptor = D2 dopamine receptor (Homo sapiens, UniProt P14416); conditions: serial PET scans; cited from earlier work
α1-adrenergic receptors = conditions: cited from earlier work
α2-adrenergic receptors = conditions: cited from earlier work
[2] = target: dopamine type 2 (D2) receptor (Homo sapiens, UniProt P14416); conditions: cited from earlier work
D1 dopamine receptors = D1 dopamine receptors (Homo sapiens, UniProt P21728); conditions: cited from earlier work
[3] = Patient 2, risperidone 2 mg per day
[4] = Patient 3, risperidone 1 mg daily resumed

Sequence of D1 dopamine receptors (P21728 whole entry): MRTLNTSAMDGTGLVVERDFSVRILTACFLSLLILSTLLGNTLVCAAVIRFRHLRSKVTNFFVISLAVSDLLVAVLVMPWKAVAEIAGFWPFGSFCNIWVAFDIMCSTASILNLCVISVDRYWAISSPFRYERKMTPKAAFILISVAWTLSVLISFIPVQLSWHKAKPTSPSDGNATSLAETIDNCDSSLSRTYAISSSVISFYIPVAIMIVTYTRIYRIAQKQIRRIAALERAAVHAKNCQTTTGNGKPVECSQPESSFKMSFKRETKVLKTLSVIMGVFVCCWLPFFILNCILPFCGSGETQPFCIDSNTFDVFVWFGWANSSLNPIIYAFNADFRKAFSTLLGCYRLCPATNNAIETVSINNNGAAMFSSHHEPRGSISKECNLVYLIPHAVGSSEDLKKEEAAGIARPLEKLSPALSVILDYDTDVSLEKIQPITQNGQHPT
Sequence of D2 dopamine receptor (P14416 whole entry): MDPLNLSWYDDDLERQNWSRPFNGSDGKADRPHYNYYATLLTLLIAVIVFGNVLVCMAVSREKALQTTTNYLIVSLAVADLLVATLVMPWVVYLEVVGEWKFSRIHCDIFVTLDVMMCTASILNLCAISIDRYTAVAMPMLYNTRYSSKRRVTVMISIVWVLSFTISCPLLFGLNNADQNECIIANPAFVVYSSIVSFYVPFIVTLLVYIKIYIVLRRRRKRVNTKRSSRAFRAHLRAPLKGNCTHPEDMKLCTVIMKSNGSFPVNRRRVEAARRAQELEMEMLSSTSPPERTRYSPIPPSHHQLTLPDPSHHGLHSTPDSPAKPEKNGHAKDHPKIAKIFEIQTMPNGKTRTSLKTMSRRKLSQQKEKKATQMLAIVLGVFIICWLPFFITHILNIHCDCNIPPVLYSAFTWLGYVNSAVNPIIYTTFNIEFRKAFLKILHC
Sequence of dopamine type 2 (D2) receptor (P14416 whole entry): as above

COc1ccc(C(CN(C)C)C2(O)CCCCC2)cc1 (stereo not drawn) [venlafaxine]
minimizing the occurrence and severity of hot flashes compared with placebo (hot flashes): more effective than placebo

COC(=O)C1=C(C)NC(C)=C(C(=O)OC)C1c1ccccc1[N+](=O)[O-] [adalate]
blood pressure after sublingual dose for sudden onsets of high blood pressure ([1]; human, in vivo): frequently dropped below critical level

OCCOCCN1CCN(C2=Nc3ccccc3Sc3ccccc32)CC1 [quetiapine]
dissociation from the D2 receptor (D2 dopamine receptor): rapidly disassociates

Fc1ccc([C@@H]2CCNC[C@H]2COc2ccc3c(c2)OCO3)cc1 [paroxetine]
minimizing the occurrence and severity of hot flashes compared with placebo (hot flashes): more effective than placebo

Cc1nc2n(c(=O)c1CCN1CCC(c3noc4cc(F)ccc34)CC1)CCCC2 [risperidone]
affinity for α1-adrenergic receptors (α1-adrenergic receptors): high affinity
associated symptoms, such as palpitation and anxiety ([1]; Patient 1, risperidone 2 mg/day): improved significantly
time to reoccurrence of hot flashes after discontinuing the treatment ([1]; Patient 1, risperidone 2 mg/day discontinued): 2 to 3 days
frequency of hot flashes ([1]; Patient 1, risperidone 2 mg/day, after three days of treatment): once per 1-2 weeks
time to alleviation of symptoms after resuming treatment ([1]; Patient 1, risperidone resumed): 3 to 4 days
hot flashes after treatment was resumed ([1]; Patient 2, risperidone 2 mg daily resumed): has not suffered another hot flash since
blood pressure [1, 3]: stabilized
sleep [1, 3]: slept well
occurrence of hot flashes ([1]; Patient 2, risperidone 2 mg per day, by day 7): completely eliminated
occurrence of hot flashes ([1]; Patient 2, risperidone 2 mg per day, two days after starting): reduced markedly
time to return of hot flashes and night sweats after treatment was completely discontinued ([1]; Patient 2, risperidone tapered off over 2 days): two
hot flashes after treatment was resumed [1, 4]: no longer experienced hot flashes
quality of sleep and life [1, 4]: improved
frequency and intensity of hot flashes ([1]; Patient 3, risperidone 1 mg per night, three days after starting, seven hot flashes per day before): markedly reduced
hot flashes after dose reduction ([1]; Patient 3, three months later, risperidone 0.25 mg or less per day): still markedly eliminated
residual hot flashes ([1]; Patient 4, risperidone 1 mg at bedtime for two days, then 2 mg per night, with hormone replacement therapy, three days after starting): completely eliminated
blood pressure ([1]; Patient 4, risperidone 2 mg per night): stabilized within the normal range
affinity for α2-adrenergic receptors (α2-adrenergic receptors): lower affinities
affinity for D2 receptor [2]: high affinity
binding to D1 dopamine receptors (D1 dopamine receptors): does not bind

Clc1cccc(Cl)c1N=C1NCCN1 [clonidine]
adverse effects (hot flashes; randomized clinical trials, including dry mouth, dizziness, and blurred vision): common
efficacy against hot flashes compared with placebo (hot flashes; randomized clinical trials, tamoxifen-induced hot flashes (Goldberg 1994; Pandya 2000)): moderately more efficacious than placebo

estrogen
response of perimenopausal symptoms to earlier therapies ([1]; Patient 3, perimenopausal person): responded well
